Here are results for 13 molecules from PMC7764330, “Bioassay-Guided Isolation of Anti-Alzheimer Active Components from the Aerial Parts of Hedyotis diffusa and Simultaneous Analysis for Marker Compounds” (Molecules, 2020).

In brackets after ≈: the same amount, converted by molar mass. Where two headings read alike, the source gives them in different places.

Test [1] concerns formation of advanced glycation end-product (AGE). The test can be described thus: Inhibition of formation of AGE (BSA with fructose and glucose, fluorescence). The class given is biochemical. The following applies: mean ± SD, n = 3; for IC50: isolated compounds. On the procedure:
The inhibitory activity of the formation of AGE was measured with a spectrophotometric method developed previously, with slight modifications. Briefly, the assay mixture contained 50 mM phosphate buffer (pH 7.4) with 0.02% sodium azide, 0.4 M fructose and glucose, bovine serum albumin (10 mg/mL), and the sample. Next, the assay mixture was incubated at 60 °C for 2 days. After incubation, 200 μL of the reaction product was measured at excitation and emission wavelengths of 350 and 450 nm, respectively. All samples and positive control (aminoguanidine) were dissolved in 10% analytical-grade DMSO at five different final concentrations. All reactions were measured in black 96-well microplates and tested in triplicate. The percentage of inhibition (%) of the formation of AGE was estimated using the following formula: {(Ac − As)/Ac} × 100, where Ac is the fluorescence of the control and As is the fluorescence of the sample. Inhibition of the formation of AGE of each sample was presented in terms of IC50, as calculated from the log dose-inhibition curve.

The target in test [2] is T1, acetylcholinesterase (AChE) (Electrophorus electricus, UniProt O42275).
T1 construct: purchased Sigma-Aldrich Co. (St. Louis, MO, USA)
The test can be described thus: biochemical. The class given is biochemical. The following applies: mean ± SD, n = 3. The text has this:
(§1) Methanol (MeOH), ethanol (EtOH), n-hexane (Hx), dichloromethane (DCM), ethyl acetate (EA), n-butanol (BuOH) (Samchun Pure Chemical, Pyeongtaek, Gyeonggi, Korea) and distilled water were used for extraction, fractionation, and open column chromatography. Open column chromatography used silica gel 60 (40–63 μm; Merck, Darmstadt, Germany), Sephadex LH-20 (25–100 μm; Pharmacia, Stockholm, Sweden), MCI CHP 20P (Supelco, St. Louis, MO, USA), and octadecyl-silica (ODS) gel (400–500 mesh; Waters, Milford, MA, USA). Methanol-d4 (CD3OD) and dimethyl sulfoxide-d6 (DMSO-d6) were used for NMR analysis. The molecular weight was determined by ultra-high-performance liquid chromatography (UPLC) and high-resolution mass spectrometry (HRMS) by connecting an electrospray ionization hybrid linear trap-quadruple-Orbitrap MS system (ESI/LTQ-Orbitrap) to an Ultimate 3000 rapid separation liquid chromatography (RSLC) system (Thermo, Darmstadt, Germany). A TECAN Sunrise microplate reader and Infinite F200 pro (Männedorf, Zürich, Switzerland) were used for absorbance and fluorescence, respectively. High performance liquid chromatography (HPLC) was performed using Waters 2695 system pump and Waters 996 Photodiode array detector (Waters, Milford, MA, USA); data was extracted with Empower Pro 2.0 software. The separation column was a Waters Kromasil C18 column (4.6 × 250 mm, 5 μm). HPLC-grade solvents (e.g., acetonitrile and distilled water (H2O)) were purchased from J. T. Baker® (Phillipsburg, PA, USA). HPLC-grade acetic acid was purchased from Fisher Chemical (Janssen Pharmaceuticalaan, Geel, Belgium). In addition, analytical-grade dimethyl sulfoxide (DMSO), used as a solvent in the bioassay, was purchased from DEAJUNG Chemical (Siheung, Gyeonggi, Korea). Reagents and solvents, including AChE from electric eel, acetylthiocholine iodide (ATCh), BChE from equine serum, S-butyrylthiocholine iodide (BTCh), 5,5′- dithiobis [2-nitrobenzoic acid] […] The BACE1 (β-secretase) FRET assay kit was purchased from Pan Vera Co. (Madison, WI, USA).
(§2) The inhibitory activities of the test samples against ChE (AChE and BChE) were evaluated using the spectrophotometric method developed in a previous study. ATCh and BTCh were used as substrates to measure the inhibitory activities of AChE and BChE, respectively. The assay mixture contained 0.1 M sodium phosphate buffer (pH 7.8), 0.3 U/mL AChE or BChE, 0.5 mM DTNB, 0.6 mM ATCh or BTCh, and the tested sample solution that were mixed and incubated for 15 min at room temperature. […] Reactions started on addition of 10 μL of DTNB and 10 μL of either ATCh or BTCh. The ChE inhibitory activity was monitored based on the formation of the yellow 5-thio-2-nitrobenzoate anion at 412 nm for 15 min that was due to the reaction of DTNB and thiocholine released from ATCh or BTCh. All reactions were measured in 96-well microplates and tested in triplicate. The percentage of inhibition (%) was estimated using the following formula: {(Ac − As)/Ac} × 100, where Ac is the enzyme activity without the test sample and As is the enzyme activity with the test sample.

Test [3] has as its target T2, β-site amyloid precursor protein cleaving enzyme 1 (BACE1) (Homo sapiens, UniProt P56817).
T2 construct: purchased Pan Vera Co. (Madison, WI, USA)
The test can be described thus: BACE1 (β-secretase) FRET enzyme assay. The class given is biochemical. The following applies: mean ± SD, n = 3.
From the text: as §1
The BACE1 enzyme assay was performed in accordance with the manufacturer’s recommended protocol, with minor modifications. Briefly, the assay mixture contained 1.0 U/mL of BACE1, 50 mM sodium acetate buffer (pH 4.5), the substrate (750 nM Rh-[…]-Quencher in 50 mM ammonium bicarbonate), and samples. […] The reaction mixture was incubated for 60 min at 25 °C in the dark. Prior to measurement, stop solution (2.5 M sodium acetate) was added to the assay mixture. […] All reactions were measured in black 96-well microplates and tested in triplicate. The percentage of inhibition (%) was obtained using the following formula: [1 − (S60 − S0)/(C60 − C0)] × 100, where C60 is the fluorescence of the control after 60 min of incubation, C0 is the initial fluorescence of the control, S60 is the fluorescence of the tested sample after 60 min of incubation, and S0 is the initial fluorescence of the tested sample. BACE1 inhibitory activity assay of each sample was presented in terms of IC50, as calculated from the log dose inhibition curve.

Test [4] addresses T3, butyrylcholinesterase (BChE) (Equus caballus, UniProt P81908).
T3 construct: BChE from equine serum; purchased Sigma-Aldrich Co. (St. Louis, MO, USA); host or cells: equine serum
The test can be described thus: biochemical. The following applies: isolated compounds, mean ± SD, n = 3.
From the text: as §1, §2

A further test has as its system neuroinflammation. Also noted: method as in PMID 27623545. The following applies: for the treatment of AD; cited from earlier work.
The mark [5] stands for this setting: isolated compounds, read-out: IC50 AChE.
Setting [6] is: isolated compounds, read-out: IC50 BACE1.

The term IC50 denotes the concentration that inhibits the measured activity by half.

T2 sequence (P56817 22-501 limits assumed): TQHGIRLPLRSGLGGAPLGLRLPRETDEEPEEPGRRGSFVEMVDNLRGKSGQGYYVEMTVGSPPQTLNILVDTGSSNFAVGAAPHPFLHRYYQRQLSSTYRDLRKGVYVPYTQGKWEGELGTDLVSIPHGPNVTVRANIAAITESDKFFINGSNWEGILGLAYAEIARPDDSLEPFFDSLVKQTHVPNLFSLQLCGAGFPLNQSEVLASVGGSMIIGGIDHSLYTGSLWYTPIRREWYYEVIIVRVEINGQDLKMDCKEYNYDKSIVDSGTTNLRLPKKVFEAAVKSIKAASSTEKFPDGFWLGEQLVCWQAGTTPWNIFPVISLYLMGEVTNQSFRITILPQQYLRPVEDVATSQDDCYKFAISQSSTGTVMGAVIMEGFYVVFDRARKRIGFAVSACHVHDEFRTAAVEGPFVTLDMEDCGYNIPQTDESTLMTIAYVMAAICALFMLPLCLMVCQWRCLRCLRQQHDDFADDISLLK
T3 sequence (P81908 whole entry): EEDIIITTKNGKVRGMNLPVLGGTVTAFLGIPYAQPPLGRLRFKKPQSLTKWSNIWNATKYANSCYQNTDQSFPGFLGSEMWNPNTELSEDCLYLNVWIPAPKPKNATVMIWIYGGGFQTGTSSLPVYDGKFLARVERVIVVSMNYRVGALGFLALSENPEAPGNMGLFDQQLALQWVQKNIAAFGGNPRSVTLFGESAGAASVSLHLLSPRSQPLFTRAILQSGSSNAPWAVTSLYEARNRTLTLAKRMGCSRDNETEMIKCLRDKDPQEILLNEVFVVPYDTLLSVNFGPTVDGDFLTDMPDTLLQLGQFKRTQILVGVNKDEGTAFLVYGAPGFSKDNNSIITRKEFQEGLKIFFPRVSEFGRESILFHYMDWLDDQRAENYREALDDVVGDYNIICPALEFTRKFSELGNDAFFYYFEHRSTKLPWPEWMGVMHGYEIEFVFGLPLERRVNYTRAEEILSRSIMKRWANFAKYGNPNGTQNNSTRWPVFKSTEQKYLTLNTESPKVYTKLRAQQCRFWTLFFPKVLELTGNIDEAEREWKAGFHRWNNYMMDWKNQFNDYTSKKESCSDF
T1 sequence (O42275 24-633): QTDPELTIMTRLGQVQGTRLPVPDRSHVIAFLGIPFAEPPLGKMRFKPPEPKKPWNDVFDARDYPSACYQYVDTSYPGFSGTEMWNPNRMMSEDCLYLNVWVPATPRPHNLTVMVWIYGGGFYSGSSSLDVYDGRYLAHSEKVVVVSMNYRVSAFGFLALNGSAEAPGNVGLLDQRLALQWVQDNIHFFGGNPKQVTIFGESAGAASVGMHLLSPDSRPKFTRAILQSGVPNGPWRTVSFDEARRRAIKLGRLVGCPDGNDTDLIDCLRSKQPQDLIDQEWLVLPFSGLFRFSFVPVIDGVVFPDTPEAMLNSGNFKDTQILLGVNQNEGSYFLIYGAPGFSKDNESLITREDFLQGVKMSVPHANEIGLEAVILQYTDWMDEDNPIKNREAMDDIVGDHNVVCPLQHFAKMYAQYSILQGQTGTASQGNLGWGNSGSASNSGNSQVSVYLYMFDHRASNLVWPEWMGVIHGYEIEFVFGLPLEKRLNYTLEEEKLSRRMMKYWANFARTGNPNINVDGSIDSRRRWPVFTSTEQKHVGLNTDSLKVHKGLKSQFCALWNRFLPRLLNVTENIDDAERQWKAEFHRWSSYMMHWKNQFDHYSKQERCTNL

Take `N=C(N)NN` [AMG, aminoguanidine, reference compound]: the “IC50 AGE Formation” value in test [1] (extract and fractions) came to 131.92 ± 11.24 µg/mL (≈ 1780 µM).

With `COc1ccc2cc3[n+](cc2c1OC)CCc1cc2c(cc1-3)OCO2` [Berberine, berberine, reference compound], the IC50 was 0.327 µM in test [2] (IC50 AChE, extract and fractions); 0.31 ± 0.01 µM in test [2] (IC50 AChE, isolated compounds).

For the molecule `COC(=O)C1=CO[C@@H](O[C@@H]2O[C@H](CO)[C@@H](O)[C@H](O)[C@H]2O)[C@@H]2C(CO)=C[C@@H](OC(=O)/C=C/c3ccc(O)cc3)[C@H]12` [Compound 1, E-6-O-p-coumaroyl scandoside methyl ester], the IC50 was determined as 304 ± 12.2 µM in test [2] (setting [5]); 63.3 ± 4.56 µM in test [3] (IC50 BACE1, isolated compounds); 105 ± 14.5 µM in test [1].

For the molecule `COC(=O)C1=CO[C@@H](O[C@@H]2O[C@H](CO)[C@@H](O)[C@H](O)[C@H]2O)[C@@H]2C(CO)=C[C@@H](OC(=O)/C=C/c3ccc(O)cc3)[C@H]12` [Compound 2, 6-O-p-coumaroyl scandoside methyl ester], the IC50 is 298 ± 22.7 µM in test [2] (setting [5]); 121 ± 14.8 µM in test [3] (IC50 BACE1, isolated compounds); 381 ± 42.7 µM in test [1].

On to `COC(=O)C1=CO[C@@H](O[C@@H]2O[C@H](CO)[C@@H](O)[C@H](O)[C@H]2O)[C@@H]2C(CO)=C[C@@H](OC(=O)/C=C/c3ccc(O)c(OC)c3)[C@H]12` [Compound 3, E-6-O-feruloyl scandoside methyl ester], for which the IC50 is 96.8 ± 5.29 µM in test [2] (setting [5]); 116 ± 29.4 µM in test [4] (read-out: IC50 BChE); 121 ± 11.9 µM in test [3] (IC50 BACE1, isolated compounds).

On to `COC(=O)C1=CO[C@@H](O[C@@H]2O[C@H](CO)[C@@H](O)[C@H](O)[C@H]2O)[C@@H]2C(CO)=C[C@H](O)[C@H]12` [Compound 4, deacetylasperulosidic acid methyl ester], for which the IC50 in test [2] (setting [5]) was 172 ± 20.6 µM; in test [4] (read-out: IC50 BChE), 17.6 ± 0.78 µM; in test [3] (setting [6]) it was over 500 µM.

With `CC(=O)OCC1=C[C@@H]2OC(=O)C3=CO[C@@H](O[C@@H]4O[C@H](CO)[C@@H](O)[C@H](O)[C@H]4O)[C@H]1[C@@H]32` [Compound 5, asperuloside], the 50% inhibitory concentration (IC50) in test [2] (IC50 AChE, isolated compounds) is 259 ± 7.48 µM; in test [4] (IC50 BChE) it was over 500 µM; in test [3] (IC50 BACE1, isolated compounds), over 500 µM; in test [1], over 1000 µM.

On to `COC(=O)C1=CO[C@@H](O[C@@H]2O[C@H](CO)[C@@H](O)[C@H](O)[C@H]2O)[C@@H]2C(CO)=C[C@H](OC)[C@H]12` [Compound 6, 6-O-Methyldeacetylasperulosidic acid methyl ester], for which the IC50 was 81.1 ± 5.58 µM in test [2] (setting [5]); 32.2 ± 2.8 µM in test [4] (read-out: IC50 BChE); over 500 µM in test [3] (IC50 BACE1, isolated compounds).

For the molecule `COC(=O)C1=CO[C@@H](O[C@@H]2O[C@H](CO)[C@@H](O)[C@H](O)[C@H]2O)[C@@H]2C(CO)=C[C@@H](OC)[C@H]12` [Compound 7, 6-O-Methylscandoside methyl ester], the “IC50 AChE” value in test [2] (isolated compounds) is reported as “did not inhibit AChE”. The IC50 in test [4] (read-out: IC50 BChE) was 11.6 ± 0.68 µM; in test [3] (IC50 BACE1, isolated compounds), over 500 µM.

Take `COC(=O)C1=CO[C@@H](O[C@@H]2O[C@H](CO)[C@@H](O)[C@H](O)[C@H]2O)[C@@H]2C(CO)=C[C@@H](O)[C@H]12` [Compound 8, scandoside methyl ester]: the IC50 in test [2] (setting [5]) was 158 ± 13.2 µM; in test [4] (read-out: IC50 BChE), 16.2 ± 2.05 µM; in test [3] (setting [6]), over 500 µM.

`CC(=O)OCC1=C[C@H](O)[C@@H]2C(C(=O)O)=CO[C@@H](O[C@@H]3O[C@H](CO)[C@@H](O)[C@H](O)[C@H]3O)[C@H]12` [Compound 9, asperulosidic acid]: the IC50 was 68.3 ± 5.11 µM in test [2] (IC50 AChE, isolated compounds); 80.3 ± 19.8 µM in test [4] (IC50 BChE); over 500 µM in test [3] (IC50 BACE1, isolated compounds).

On to `COc1cc(/C=C/C(=O)OC[C@H]2O[C@@H](O[C@H]3[C@H](Oc4c(-c5ccc(O)c(O)c5)oc5cc(O)cc(O)c5c4=O)O[C@H](CO)[C@@H](O)[C@@H]3O)[C@H](O)[C@@H](O)[C@@H]2O)ccc1O` [Compound 10, quercetin-3-O-[2″-O-(6‴-O-E-feruloyl)-β-D-glucopyranosyl]-β-D-glucopyranoside], for which the IC50 in test [2] (setting [5]) is 46.2 ± 1.59 µM; in test [4] (read-out: IC50 BChE), 13.8 ± 0.37 µM; in test [3] (IC50 BACE1, isolated compounds), 4.49 ± 1.86 µM; in test [1] it was 2.71 ± 0.06 µM.

Consider `O=c1c(O[C@@H]2O[C@H](CO)[C@@H](O)[C@H](O)[C@H]2O[C@@H]2O[C@H](CO)[C@@H](O)[C@H](O)[C@H]2O)c(-c2ccc(O)c(O)c2)oc2cc(O)cc(O)c12` [compound β, quercetin-3-O-sophoroside], for which the neuroinflammation inhibitory activity entry with neuroinflammation is “does not show effective neuroinflammation inhibitory activity”.
